Laboratory results as given in patent publication US20240409536A1, “COMPOUNDS AND METHODS FOR MODULATING SPLICING” (REMIX THERAPEUTICS INC., priority 2021, published 2024).
Where a name gives a salt, the structure may show the parent alone.

Legend:
Target C mRNA = test: Gene panel canonical junction qPCR assay, Target C CJ mRNA decrease; format: cell-based; conditions: Homo sapiens, canonical junction qPCR, read-out: Target C IC50 (decrease in CJ mRNA levels)
Summary of the method: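 A673 or K562 cells were treated with compound, and lysates underwent cDNA synthesis and qPCR with a CY5 5′-nuclease probe or primer spanning the canonical exon junction. ΔCt versus GAPDH, GUSB or PPIA was normalized to DMSO (2^(−ΔΔCt)), converted to percentage response and fitted four-parameter logistic for IC50.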

K562 cells = test: Cell Titer Glo 2.0 cell viability assay in K562 cells; conditions: 72 hours
Description: Compounds described herein were screened for toxicity in K562 (human chronic myelogenous leukemia) and SH-SY5Y (human neuroblastoma) cells using a Cell Titer Glo 2.0 assay.
Cells were plated at 500 cells/well (K562 cells) in 45 μL of IMDM supplemented with 10% FBS in a 384-well opaque plate. Wells containing only medium were used as a blank control. Test compounds (e.g., compounds of Formula (I), (II), or (III)) were first serially diluted in DMSO then diluted 1:100 with IMDM+10% FBS. The final concentration of DMSO was 0.1% in each well. The cells were incubated for 72 hours at 37° C. and 5% CO2 before assaying with Cell Titer Glo 2.0 reagent.

HiBiT-tagged HTT protein = test: HiBiT protein abundance assay, HTT (K562 HiBiT knock-in cells); format: cell-based, human; conditions: 24 hours
Summary of the method: (§1)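 K562 cells with endogenous HiBiT knock-in tag, 10-point 3-fold dilutions (top 10 μM final, ≤0.25% DMSO), 24 h at 37 °C. Lytic Nano-Glo HiBiT luminescence, normalized to DMSO and unmodified K562 baselines; IC50 is concentration giving 50% protein abundance from four-parameter fit.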

HiBiT-tagged MYB protein = test: HiBiT protein abundance assay, MYB (K562 HiBiT knock-in cells); format: cell-based, human; conditions: 24 hours
Summary of the method: as §1

Target C = test: HiBiT protein abundance assay, Target C (K562 HiBiT knock-in cells); format: cell-based, human; conditions: 24 hours
Summary of the method: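 K562 knock-in cells (10000/well, IMDM+1% FBS) treated 24 h at 37 °C with 10-point 3-fold dilutions, top final 10 μM, DMSO ≤0.25%. HiBiT lytic luminescence read; response normalized to unmodified K562 and DMSO-treated controls. IC50 interpolated at 50% abundance by four-parameter logistic fit.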

| Compound | IC50 (Target C mRNA) [nM] | IC50 (HiBiT-tagged HTT protein) [nM] | IC50 (HiBiT-tagged MYB protein) [nM] | IC50 (Target C) [nM] | Viability (K562 cells) |
| --- | --- | --- | --- | --- | --- |
| Cc1cn2cc(NC(=O)c3ccc(N4C[C@H]5C[C@@H]4C5N(C)C)c4ccnnc34)cc(F)c2n1 (stereo partly shown) [Compound 155] | > 10000 | > 10000 | > 10000 | > 10000 | B (B represents 100-1000 nM) |
| Cc1cc2c(N3CCNCC3)ccc(C(=O)Nc3cc(F)c4nc(C)cn4c3)c2nn1 [Compound 159] | 1000 to 10000 | 100 to 1000 | < 100 | 1000 to 10000 | A (A represents <100 nM) |
| Cc1cn2cc(NC(=O)c3ccc(N4C[C@@H](C)N[C@@H](C)C4)c4ccnnc34)cc(F)c2n1 [Compound 161, 5-(3,5-dimethylpiperazin-1-yl)-N-{8-fluoro-2-methylimidazo[1,2-a]pyridin-6-yl}cinnoline-8-carboxamide 2,2,2-trifluoroacetate] | 1000 to 10000 | 1000 to 10000 | < 100 | 1000 to 10000 | B (B represents 100-1000 nM) |
| Cc1ccc2c(N3CCNCC3)ccc(C(=O)Nc3cc(F)c4nc(C)cn4c3)c2n1 [Compound 162, N-{8-fluoro-2-methylimidazo[1,2-a]pyridin-6-yl}-2-methyl-5-(piperazin-1-yl)quinoline-8-carboxam-ide, trifluoroacetic acid] | 1000 to 10000 | 100 to 1000 | < 100 | 1000 to 10000 | B (B represents 100-1000 nM) |
| Cc1cn2cc(NC(=O)c3ccc(N4CCNCC4)c4cccnc34)cc(F)c2n1 [Compound 165, N-{8-fluoro-2-methylimidazo[1,2-a]pyridin-6-yl}-5-(piperazin-1-yl)quinoline-8-carboxamide] | 1000 to 10000 | 100 to 1000 | < 100 | 1000 to 10000 | A (A represents <100 nM) |
| Cc1cn2cc(NC(=O)c3ccc(N4CCNCC4)c4nnccc34)cc(F)c2n1 [Compound 166, N-(8-fluoro-2-methylimidazo[1,2-a]pyridin-6-yl)-8-(piperazin-1-yl)cinnoline-5-carboxamide 2,2,2-trifluoroacetate] | > 10000 | > 10000 | > 10000 | > 10000 | D (D represents greater than 10 μM in K562 cells) |
| COc1ccc2c(N3CCNCC3)ccc(C(=O)Nc3cc(F)c4nc(C)cn4c3)c2n1 [Compound 169, N-{8-fluoro-2-methylimidazo[1,2-a]pyridin-6-yl}-2-methoxy-5-(piperazin-1-yl)quinoline-8-carboxamide] | 1000 to 10000 | 100 to 1000 | < 100 | 1000 to 10000 | A (A represents <100 nM) |
| Cc1cn2cc(NC(=O)c3ccc(N4C[C@@H](C)N[C@@H](C)C4)c4ccnnc34)nc(C)c2n1 [Compound 172, N-{2,8-dimethylimidazo[1,2-a]pyrazin-6-yl}-5-[(3R,5S)-3,5-dimethylpiperazin-1-yl]cinnoline-8-carboxamide] | 1000 to 10000 | > 10000 | < 100 | > 10000 | B (B represents 100-1000 nM) |
| COCCOc1ccc2c(N3CCNCC3)ccc(C(=O)Nc3cc(F)c4nc(C)cn4c3)c2n1 [Compound 173, N-{8-fluoro-2-methylimidazo[1,2-a]pyridin-6-yl}-2-(2-methoxyethoxy)-5-(piperazin-1-yl)quinoline-8-carboxamide] | 1000 to 10000 | > 10000 | < 100 | > 10000 | B (B represents 100-1000 nM) |
| Cc1nc(NC(=O)c2ccc(N3CCNCC3)c3ccnnc23)cc2cn(C)nc12 [Compound 178, N-{2,7-dimethylpyrazolo[3,4-c]pyridin-5-yl}-5-(piperazin-1-yl)cinnoline-8-carboxamide] | > 10000 | 1000 to 10000 | 100 to 1000 | > 10000 | C (C represents 1000-9999 nM) |
| Cc1c(O)c(NC(=O)c2ccc(N3CCNCC3)c3ccnnc23)cc2cn(C)nc12 [Compound 181, N-(6-hydroxy-2,7-dimethylindazol-5-yl)-5-(piperazin-1-yl)cinnoline-8-carboxamide] | > 10000 | > 10000 | 1000 to 10000 | > 10000 | C (C represents 1000-9999 nM) |
| COc1cc2c(N3CCNCC3)ccc(C(=O)Nc3cc(F)c4nc(C)cn4c3)c2nn1 [Compound 183, N-{8-fluoro-2-methylimidazo[1,2-a]pyridin-6-yl}-3-methoxy-5-(piperazin-1-yl)cinnoline-8-carboxamide] | > 10000 | 100 to 1000 | < 100 | 1000 to 10000 | B (B represents 100-1000 nM) |
| Cc1cn2cc(NC(=O)c3ccc(N4CCN[C@@H](C)C4)c4nccnc34)cc(F)c2n1 [Compound 187, N-{8-fluoro-2-methylimidazo[1,2-a]pyridin-6-yl}-8-(3-methylpiperazin-1-yl) quinoxaline-5-carboxamide] | > 10000 | 1000 to 10000 | < 100 | 1000 to 10000 | B (B represents 100-1000 nM) |
| Cc1cn2cc(NC(=O)c3ccc(N4CCC5(CCN5)CC4)c4nccnc34)cc(F)c2n1 [Compound 189, 8-{1,7-diazaspiro[3.5]nonan-7-yl}-N-{8-fluoro-2-methylimidazo[1,2-a]pyridin-6-yl}quinoxaline-5-carboxamide] | 1000 to 10000 | 100 to 1000 | < 100 | 1000 to 10000 | B (B represents 100-1000 nM) |
| CNC1CCN(c2ccc(C(=O)Nc3cc(F)c4nc(C)cn4c3)c3nccnc23)C1 (stereo not shown) [Compound 190, N-{8-fluoro-2-methylimidazo[1,2-a]pyridin-6-yl}-8-[3-(methylamino)pyrrolidin-1-yl]quinoxaline-5-carboxamide] | 1000 to 10000 | 1000 to 10000 | 100 to 1000 | 1000 to 10000 | A (A represents <100 nM) |

Further lines, with some results ahead:

| IC50 (Target C mRNA) [nM] | IC50 (HiBiT-tagged HTT protein) [nM] | IC50 (HiBiT-tagged MYB protein) [nM] | IC50 (Target C) [nM] | Compound | Viability (K562 cells) |
| --- | --- | --- | --- | --- | --- |
| > 10000 | > 10000 | 1000 to 10000 | > 10000 | CC(=O)c1cc(NC(=O)c2ccc(N3CCNCC3)c3ccnnc23)cn2cc(C)nc12 [Compound 163, N-{8-acetyl-2-methylimidazo[1,2-a]pyridin-6-yl}-5-(piperazin-1-yl)cinnoline-8-carboxamide] | C (C represents 1000-9999 nM) |
| > 10000 | 1000 to 10000 | 100 to 1000 | > 10000 | Cc1cn2cc(NC(=O)c3ccc(N4CCNCC4)c4ccnnc34)nc(C)c2n1 [Compound 164, N-{2,8-dimethylimidazo[1,2-a]pyrazin-6-yl}-5-(piperazin-1-yl)cinnoline-8-carboxamide 2,2,2-trifluoroacetate] | B (B represents 100-1000 nM) |
| > 10000 | 1000 to 10000 | 100 to 1000 | 1000 to 10000 | Cc1cn2cc(NC(=O)c3ccc(N4CCNCC4)c4ccnnc34)cc(C#N)c2n1 [Compound 167, N-{8-cyano-2-methylimidazo[1,2-a]pyridin-6-yl}-5-(piperazin-1-yl)cinnoline-8-carboxamide trifluoroacetic acid salt] | B (B represents 100-1000 nM) |
| > 10000 | > 10000 | 1000 to 10000 | > 10000 | CCc1cc(NC(=O)c2ccc(N3CCNCC3)c3ccnnc23)nn2cc(C)nc12 [Compound 168, N-{8-ethyl-2-methylimidazo[1,2-b]pyridazin-6-yl}-5-(piperazin-1-yl)cinnoline-8-carboxamide trifluoroacetic acid salt] | C (C represents 1000-9999 nM) |
| > 10000 | 1000 to 10000 | 100 to 1000 | 1000 to 10000 | COc1cc(NC(=O)c2ccc(N3CCNCC3)c3ccnnc23)cn2cc(C)nc12 [Compound 176, N-{8-methoxy-2-methylimidazo[1,2-a]pyridin-6-yl}-5-(piperazin-1-yl)cinnoline-8-carboxamide trifluoroacetate] | B (B represents 100-1000 nM) |
| 100 to 1000 | 100 to 1000 | 100 to 1000 | 100 to 1000 | Cc1cn2cc(NC(=O)c3ccc(N4CCNCC4)c4ccnnc34)[nH]c(=O)c2n1 [Compound 177, N-{2-methyl-8-oxo-7H-imidazo[1,2-a]pyrazin-6-yl}-5-(piperazin-1-yl)cinnoline-8-carboxamide trifluoroacetic acid salt] | B (B represents 100-1000 nM) |
| > 10000 | 1000 to 10000 | < 100 | > 10000 | COc1nc(NC(=O)c2ccc(N3CCNCC3)c3ccnnc23)cn2cc(C)nc12 [Compound 179, N-{8-methoxy-2-methylimidazo[1,2-a]pyrazin-6-yl}-5-(piperazin-1-yl)cinnoline-8-carboxamide] | B (B represents 100-1000 nM) |
| > 10000 | > 10000 | > 10000 | > 10000 | Cc1cn2cc(NC(=O)c3ccc(N4CCNCC4)c4ccnnc34)cc(C(C)O)c2n1 (stereo not shown) [Compound 182, N-[8-(1-hydroxyethyl)-2-methylimidazo[1,2-a]pyridin-6-yl]-5-(piperazin-1-yl)cinnoline-8-carboxamide trifluoroacetate] | D (D represents greater than 10 μM in K562 cells) |
